Test results taken from US12589143B2, “Human anti-PD-L1 peptide vaccines and methods of their use” (priority 2019, dated 2026).
Where “and” joins values, the source holds several entries; their conditions need not be identical. Equal values may be shown once. Where no end group is shown, it is not given here.

Tests used:
[1] = tested on: MVF-PD-L1 peptides; assay: Immunogenicity in rabbits: ELISA antibody titers of sera vs the immunogen; assay type: in vivo, New Zealand White rabbits; settings: after the second boost
Method: (§1) Immunogenicity of MVF-PD-L1 B-cell epitopes. New Zealand White rabbits were immunized with 1 mg of each MVF-peptide immunogens dissolved in dd H2O emulsified (1:1) in Montanide ISA 720 vehicle (Seppic) with 333 μg of N-acetylglucosamine-3yl-acetyl-1-alanyl-d-isoglutamine (nor-MDP). Rabbits were boosted with the same doses at 3-week's intervals. Blood was collected via the central auricular artery in rabbits. Blood was collected weekly (1Y+3, 2Y+1, 2Y+2,2Y+3, 3Y+1, 3Y+2 and sera tested for antibody titers by ELISA using the immunogens MVF-PD-L1 peptides. Sera (terminal) from rabbit (3Y+3) immunized with MVF-PD-1 peptide immunogens were tested individually versus the immunogen by ELISA. 200 ng/well peptide were used in duplicates to coat the ELISA plates. Titers are defined as the highest dilution of sera with an absorbance value of 0.2 after subtracting the blank.
For each peptide, vaccine antibodies were raised using New Zealand white rabbits purchased from Charles River Laboratories (Wilmington, MA, USA). […] Antibody titers were monitored by direct ELISA against the peptide immunogen, the peptide B cell epitope, and an acetylated version of the B-cell epitope. […] Peptide vaccine antibodies were purified by affinity chromatography using a protein A/G column and the concentration was measured by Coomassie protein assay. […]

[2] = tested on: MVF-PD-L1 peptide immunogen; assay: Immunogenicity in Balb/c mice, experiment 2 (CT26/HER-2): ELISA of sera vs each MVF-PD-L1 peptide immunogen; assay type: in vivo
Method: as §1, with “blank. […]” for “blank.”
In order to verify the efficacy of the PD-L1 epitope vaccines in vivo in the CT26/HER-2 carcinoma cell line, Balb/c mice (10 mice/group) were immunized with 100 μg each of MVF-PD-L1 (36-53), MVF-PD-L1 (50-67), MVF-PD-L1 (95-112) and MVF-PD-L1 (130-147) emulsified with nor-MDP and Montanide 720 (1:1 ratio) SCHEME 2A (FIG. 15A). As detailed in SCHEME 2A-D (FIGS. 15A, 15B, 15C, and 15D), mice were immunized 3 times at 3 weeks intervals. […] All PD-L1 epitopes elicited high titers of PD-L1 anti-peptide antibodies by ELISA. […] We also investigated the combination of PD-1(92-110) with PD-L1-95.
For each peptide, vaccine antibodies were raised in New Zealand white rabbits, purchased from Charles River Laboratories (Wilmington, MA, USA). Rabbits were immunized with 1 mg of MVF chimeric peptide emulsified in Montanide ISA 720 (Seppic, Paris, France) and boosted 3 times at three week intervals. For mouse experiments, mice, 6-8 weeks old, were immunized with 0.1 mg of peptide emulsified in ISA720 (1:1 ratio). Mice were boosted with the respective doses at 3-week intervals. Blood was then collected and sera were tested for antibody titers. Sera were collected weekly and peptide vaccine antibodies were purified by affinity chromatography using a protein A/G column and the concentration was measured using Spectrophometer. All experiments were performed in accordance with the U.S. Public Health Service Policy on Humane Care and Use of Laboratory animals and approved by the Ohio State University Institutional Animals Care and Use Committee, detailed in the accepted protocol.
6-8 weeks old BALB/c mice (Charles River, Wilmington, MA) were used as standard animal models. Mouse CT26 colon carcinoma cell line was purchased from American Type Culture Collection Cells and were regularly cultured in RPMI1640 medium containing 10% FBS. CT26/HER2 cells were kindly provided by M. Penichet. Vaccines were dissolved in sterile water and emulsified in Montanide ISA 720 (1:1). Female Balb/c mice (Charles River Laboratories) at the age of 6-8 weeks were immunized three times at 3-week intervals with 100 μg of each peptide vaccine, and 2 weeks after the third immunization, the mice were challenged with CT26 and/or CT26/HER-2 tumor cells, which were implanted subcutaneously (s.c) on the right flank (1×10^5 per mouse). 200 μg of rat α-mouse PD-L1 mAb 10F.9G2 (Bio X Cell, West Lebanon, NH) were administered intraperitoneally (i.p.), twice weekly following tumor inoculation in the control group. Mice were monitored and scored for the formation of palpable tumors on a daily basis and sacrificed if tumors became necrotic or exceeded the predetermined size of 2,000 mm^3. Tumor volumes were measured in cubic millimeters with calipers and calculated with the following formula: A×B^2×0.5, where A is the largest diameter, and B is the widest point perpendicular to length. During immunization, blood was drawn weekly and used in ELISA to monitor antibody titers.

## KLLSLIKGVIVHRLEGVEGPSLVTSEHELTCQAEGYPKAE (KLLSLIKGVIVHRLEGVEGPSLVTSEHELTCQAEGYPKAE-NH2) [PD-L1(130)]
[1]
  antibody titers: 64,000
[2]; bleed 1Y + 3, (1to100)
  Immunogenicity (titers) 1′ Conc. 1:: 1600
[2]; bleed 1Y + 3, (1to100), dilution 800, duplicate wells
  ELISA plate reading of serum: 0.449 and 0.439
[2]; bleed 1Y + 3, (1to100), dilution 1,600, duplicate wells
  ELISA plate reading of serum: 0.262 and 0.245
[2]; bleed 1Y + 3, (1to100), dilution 6,400, duplicate wells
  ELISA plate reading of serum: 0.072 and 0.050
[2]; bleed 1Y + 3, (1to100), dilution 12,800, duplicate wells
  ELISA plate reading of serum: 0.040 and 0.030
[2]; bleed 1Y + 3, (1to100), dilution row 100, duplicate wells
  ELISA plate reading of serum: 1.023 and 1.039
[2]; bleed 1Y + 3, (1to100), dilution row 200, duplicate wells
  ELISA plate reading of serum: 0.861 and 0.849
[2]; bleed 1Y + 3, (1to100), dilution row 400, duplicate wells
  ELISA plate reading of serum: 0.671 and 0.672
[2]; bleed 1Y + 3, (1to100), dilution row 3,200, duplicate wells
  ELISA plate reading of serum: 0.148 and 0.110
[2]; bleed 2Y + 1, (1to100)
  Immunogenicity (titers) 1′ Conc. 1:: 6400
[2]; bleed 2Y + 1, (1to100), dilution 800, duplicate wells, bleed 2Y + 1
  ELISA plate reading of serum: 1.118 and 1.079
[2]; bleed 2Y + 1, (1to100), dilution 1,600, duplicate wells, bleed 2Y + 1
  ELISA plate reading of serum: 0.819 and 0.774
[2]; bleed 2Y + 1, (1to100), dilution 6,400, duplicate wells, bleed 2Y + 1
  ELISA plate reading of serum: 0.311 and 0.286
[2]; bleed 2Y + 1, (1to100), dilution 12,800, duplicate wells, bleed 2Y + 1
  ELISA plate reading of serum: 0.175 and 0.162
[2]; bleed 2Y + 1, (1to100), dilution row 100, duplicate wells, bleed 2Y + 1
  ELISA plate reading of serum: 1.606 and 1.563
[2]; bleed 2Y + 1, (1to100), dilution row 200, duplicate wells, bleed 2Y + 1
  ELISA plate reading of serum: 1.477 and 1.479
[2]; bleed 2Y + 1, (1to100), dilution row 400, duplicate wells, bleed 2Y + 1
  ELISA plate reading of serum: 1.378 and 1.347
[2]; bleed 2Y + 1, (1to100), dilution row 3,200, duplicate wells, bleed 2Y + 1
  ELISA plate reading of serum: 0.516 and 0.492
[2]; bleed 2Y + 2, (1to1k)
  Immunogenicity (titers) 1′ Conc. 1:: 16000
[2]; bleed 2Y + 2, (1to1k), dilution 800, duplicate wells
  ELISA plate reading of serum: 0.407 and 0.427
[2]; bleed 2Y + 2, (1to1k), dilution 1,600, duplicate wells
  ELISA plate reading of serum: 0.280 and 0.257
[2]; bleed 2Y + 2, (1to1k), dilution 6,400, duplicate wells
  ELISA plate reading of serum: 0.064 and 0.061
[2]; bleed 2Y + 2, (1to1k), dilution row 100, duplicate wells
  ELISA plate reading of serum: 1.476 and 1.437
[2]; bleed 2Y + 2, (1to1k), dilution row 200, duplicate wells
  ELISA plate reading of serum: 1.131 and 1.086
[2]; bleed 2Y + 2, (1to1k), dilution row 400, duplicate wells
  ELISA plate reading of serum: 0.767 and 0.735
[2]; bleed 2Y + 2, (1to1k), dilution row 3,200, duplicate wells
  ELISA plate reading of serum: 0.145 and 0.132
[2]; bleed 2Y + 3, (1to1k)
  Immunogenicity (titers) 1′ Conc. 1:: 64000
[2]; bleed 2Y + 3, (1to1k), dilution 800, duplicate wells
  ELISA plate reading of serum: 1.024 and 0.946
[2]; bleed 2Y + 3, (1to1k), dilution 1,600, duplicate wells
  ELISA plate reading of serum: 0.699 and 0.615
[2]; bleed 2Y + 3, (1to1k), dilution 6,400, duplicate wells
  ELISA plate reading of serum: 0.246 and 0.233
[2]; bleed 2Y + 3, (1to1k), dilution row 100, duplicate wells
  ELISA plate reading of serum: 1.711 and 1.644
[2]; bleed 2Y + 3, (1to1k), dilution row 200, duplicate wells
  ELISA plate reading of serum: 1.518 and 1.488
[2]; bleed 2Y + 3, (1to1k), dilution row 400, duplicate wells
  ELISA plate reading of serum: 1.317 and 1.263
[2]; bleed 2Y + 3, (1to1k), dilution row 3,200, duplicate wells
  ELISA plate reading of serum: 0.435 and 0.430
[2]; bleed 3Y + 1, (1to1k)
  Immunogenicity (titers) 1′ Conc. 1:: 64000
[2]; bleed 3Y + 1, (1to1k), dilution 800, duplicate wells, bleed 3Y + 1
  ELISA plate reading of serum: 1.176 and 1.158
[2]; bleed 3Y + 1, (1to1k), dilution 1,600, duplicate wells, bleed 3Y + 1
  ELISA plate reading of serum: 0.801 and 0.729
[2]; bleed 3Y + 1, (1to1k), dilution 6,400, duplicate wells, bleed 3Y + 1
  ELISA plate reading of serum: 0.219 and 0.206
[2]; bleed 3Y + 1, (1to1k), dilution row 100, duplicate wells, bleed 3Y + 1
  ELISA plate reading of serum: 1.928 and 1.945
[2]; bleed 3Y + 1, (1to1k), dilution row 200, duplicate wells, bleed 3Y + 1
  ELISA plate reading of serum: 1.823 and 1.707
[2]; bleed 3Y + 1, (1to1k), dilution row 400, duplicate wells, bleed 3Y + 1
  ELISA plate reading of serum: 1.516 and 1.458
[2]; bleed 3Y + 1, (1to1k), dilution row 3,200, duplicate wells, bleed 3Y + 1
  ELISA plate reading of serum: 0.438 and 0.427
[2]; bleed 3Y + 2, (1to1k)
  Immunogenicity (titers) 1′ Conc. 1:: 64000
[2]; bleed 3Y + 2, (1to1k), dilution 800, duplicate wells, bleed 3Y + 2
  ELISA plate reading of serum: 1.412 and 1.389
[2]; bleed 3Y + 2, (1to1k), dilution 1,600, duplicate wells, bleed 3Y + 2
  ELISA plate reading of serum: 0.961 and 0.874
[2]; bleed 3Y + 2, (1to1k), dilution 6,400, duplicate wells, bleed 3Y + 2
  ELISA plate reading of serum: 0.262
[2]; bleed 3Y + 2, (1to1k), dilution row 100, duplicate wells, bleed 3Y + 2
  ELISA plate reading of serum: 2.313 and 2.334
[2]; bleed 3Y + 2, (1to1k), dilution row 200, duplicate wells, bleed 3Y + 2
  ELISA plate reading of serum: 2.188 and 2.048
[2]; bleed 3Y + 2, (1to1k), dilution row 400, duplicate wells, bleed 3Y + 2
  ELISA plate reading of serum: 1.819 and 1.749
[2]; bleed 3Y + 2, (1to1k), dilution row 3,200, duplicate wells, bleed 3Y + 2
  ELISA plate reading of serum: 0.526 and 0.512
[2]; bleed 3Y + 3, (1to1k)
  Immunogenicity (titers) 1′ Conc. 1:: 64000
[2]; bleed 3Y + 3, (1to1k), dilution 800, duplicate wells
  ELISA plate reading of serum: 1.445 and 1.468
[2]; bleed 3Y + 3, (1to1k), dilution 1,600, duplicate wells
  ELISA plate reading of serum: 0.909 and 0.999
[2]; bleed 3Y + 3, (1to1k), dilution 6,400, duplicate wells
  ELISA plate reading of serum: 0.257
[2]; bleed 3Y + 3, (1to1k), dilution row 100, duplicate wells
  ELISA plate reading of serum: 2.427 and 2.406
[2]; bleed 3Y + 3, (1to1k), dilution row 200, duplicate wells
  ELISA plate reading of serum: 2.130 and 2.275
[2]; bleed 3Y + 3, (1to1k), dilution row 400, duplicate wells
  ELISA plate reading of serum: 1.819 and 1.892
[2]; bleed 3Y + 3, (1to1k), dilution row 3,200, duplicate wells
  ELISA plate reading of serum: 0.532 and 0.547
